Values after ≈ are worked out from the molar mass of the structure shown.
Assays:
[1] = molecular target: GABA A receptor alpha-2/beta-2/gamma-2 (Homo sapiens) (UniProt P47870+P18507+P47869); experiment: Inhibition of recombinant human GABA A alpha2beta2gamma2 receptor expressed in CHO-K1 cells at 300 uM incubated at room temperature for 15 mins before the GABA addition fluorescence spectrometry; format: cell-based
Mus musculus = experiment: Toxicity in CD1 mouse assessed as induction of convulsion at 100 mg/kg, icv measured 1 hr after post dose; format: organism-based; conditions: in vivo, icv_or_intrathecal
Escherichia coli [2] = experiment: microbe, parasite or virus in culture
Description: Antimicrobial activity against Escherichia coli expressing beta-lactamase CMY-2 by CLSI broth microdilution method

Escherichia coli [3] = experiment: microbe, parasite or virus in culture; remark: listed apart in the source
Description: Antimicrobial activity against Escherichia coli expressing beta-lactamase NMC-A by CLSI broth microdilution method

Escherichia coli [4] = experiment: microbe, parasite or virus in culture; remark: listed apart in the source
Description: Antimicrobial activity against Escherichia coli expressing beta-lactamase IMI-1 by CLSI broth microdilution method

Escherichia coli [5] = experiment: Antimicrobial activity against Escherichia coli expressing beta-lactamase NDM-1 by CLSI broth microdilution method; format: functional
Escherichia coli [6] = experiment: microbe, parasite or virus in culture; remark: listed apart in the source
Description: Antimicrobial activity against Escherichia coli expressing beta-lactamase MIR-1 by CLSI broth microdilution method

Escherichia coli [7] = experiment: microbe, parasite or virus in culture; remark: listed apart in the source
Description: Antimicrobial activity against Escherichia coli expressing beta-lactamase CTXM-3 by CLSI broth microdilution method

Escherichia coli [8] = experiment: microbe, parasite or virus in culture; remark: listed apart in the source
Description: Antimicrobial activity against Escherichia coli expressing beta-lactamase Oxa-40 by CLSI broth microdilution method

Escherichia coli [9] = experiment: microbe, parasite or virus in culture; remark: listed apart in the source
Description: Antimicrobial activity against Escherichia coli expressing beta-lactamase VIM-1 by CLSI broth microdilution method

Escherichia coli [10] = experiment: microbe, parasite or virus in culture; remark: listed apart in the source
Description: Antimicrobial activity against Escherichia coli expressing beta-lactamase TEM-16 by CLSI broth microdilution method

Escherichia coli [11] = experiment: microbe, parasite or virus in culture; remark: listed apart in the source
Description: Antimicrobial activity against Escherichia coli expressing beta-lactamase Oxa-146 by CLSI broth microdilution method

Escherichia coli [12] = experiment: microbe, parasite or virus in culture; remark: listed apart in the source
Description: Antimicrobial activity against Escherichia coli expressing beta-lactamase Oxa-225 by CLSI broth microdilution method

Escherichia coli [13] = experiment: microbe, parasite or virus in culture; remark: listed apart in the source
Description: Antimicrobial activity against Escherichia coli expressing beta-lactamase VEB-7 by CLSI broth microdilution method

Escherichia coli [14] = experiment: Antimicrobial activity against Escherichia coli expressing beta-lactamase KPC-2 by CLSI broth microdilution method; format: functional
Escherichia coli [15] = experiment: microbe, parasite or virus in culture; remark: listed apart in the source
Description: Antimicrobial activity against Escherichia coli expressing beta-lactamase GIM-1 by CLSI broth microdilution method

Escherichia coli [16] = experiment: microbe, parasite or virus in culture; remark: listed apart in the source
Description: Antimicrobial activity against Escherichia coli expressing beta-lactamase PER-4 by CLSI broth microdilution method

Escherichia coli [17] = experiment: Antimicrobial activity against Escherichia coli expressing beta-lactamase NDM-5 by CLSI broth microdilution method; format: functional
Escherichia coli [18] = experiment: microbe, parasite or virus in culture; remark: listed apart in the source
Description: Antimicrobial activity against Escherichia coli expressing beta-lactamase Oxa-23 by CLSI broth microdilution method

Escherichia coli [19] = experiment: microbe, parasite or virus in culture; remark: listed apart in the source
Description: Antimicrobial activity against Escherichia coli expressing beta-lactamase VEB-4 by CLSI broth microdilution method

Escherichia coli [20] = experiment: microbe, parasite or virus in culture; remark: listed apart in the source
Description: Antimicrobial activity against Escherichia coli expressing beta-lactamase KPC-8 by CLSI broth microdilution method

Escherichia coli [21] = experiment: microbe, parasite or virus in culture; remark: listed apart in the source
Description: Antimicrobial activity against Escherichia coli expressing beta-lactamase PER-1 by CLSI broth microdilution method

Escherichia coli [22] = experiment: microbe, parasite or virus in culture; remark: listed apart in the source
Description: Antimicrobial activity against Escherichia coli expressing beta-lactamase AmpC by CLSI broth microdilution method

Escherichia coli [23] = experiment: microbe, parasite or virus in culture; remark: listed apart in the source
Description: Antimicrobial activity against Escherichia coli expressing beta-lactamase IMP-1 by CLSI broth microdilution method

Escherichia coli [24] = experiment: microbe, parasite or virus in culture; remark: listed apart in the source
Description: Antimicrobial activity against Escherichia coli expressing beta-lactamase KPC-3 by CLSI broth microdilution method

Escherichia coli [25] = experiment: microbe, parasite or virus in culture; remark: listed apart in the source
Description: Antimicrobial activity against Escherichia coli expressing beta-lactamase Oxa-160 by CLSI broth microdilution method

Escherichia coli [26] = experiment: microbe, parasite or virus in culture; remark: listed apart in the source
Description: Antimicrobial activity against Escherichia coli expressing beta-lactamase SHV-12 by CLSI broth microdilution method

Escherichia coli [27] = experiment: microbe, parasite or virus in culture; remark: listed apart in the source
Description: Antimicrobial activity against Escherichia coli expressing beta-lactamase PER-2 by CLSI broth microdilution method

Escherichia coli [28] = experiment: microbe, parasite or virus in culture; remark: listed apart in the source
Description: Antimicrobial activity against Escherichia coli expressing beta-lactamase Oxa-10 by CLSI broth microdilution method

Escherichia coli [29] = experiment: microbe, parasite or virus in culture; remark: listed apart in the source
Description: Antimicrobial activity against Escherichia coli expressing beta-lactamase Oxa-18 by CLSI broth microdilution method

Escherichia coli [30] = experiment: microbe, parasite or virus in culture; remark: listed apart in the source
Description: Antimicrobial activity against Escherichia coli expressing beta-lactamase TEM-10 by CLSI broth microdilution method

Escherichia coli [31] = experiment: microbe, parasite or virus in culture; remark: listed apart in the source
Description: Antimicrobial activity against Escherichia coli expressing beta-lactamase TEM-24 by CLSI broth microdilution method

Escherichia coli [32] = experiment: microbe, parasite or virus in culture; remark: listed apart in the source
Description: Antimicrobial activity against Escherichia coli expressing beta-lactamase P99 by CLSI broth microdilution method

Escherichia coli [33] = experiment: microbe, parasite or virus in culture; remark: listed apart in the source
Description: Antimicrobial activity against Escherichia coli expressing beta-lactamase Oxa-48 by CLSI broth microdilution method

Escherichia coli [34] = experiment: microbe, parasite or virus in culture; remark: listed apart in the source
Description: Antimicrobial activity against Escherichia coli expressing beta-lactamase TEM-121 by CLSI broth microdilution method

Escherichia coli [35] = experiment: microbe, parasite or virus in culture; remark: listed apart in the source
Description: Antimicrobial activity against Escherichia coli expressing beta-lactamase KPC-4 by CLSI broth microdilution method

Escherichia coli [36] = experiment: Antimicrobial activity against Escherichia coli expressing beta-lactamase VEB-1 by CLSI broth microdilution method; format: functional
Escherichia coli [37] = experiment: microbe, parasite or virus in culture; remark: listed apart in the source
Description: Antimicrobial activity against Escherichia coli expressing beta-lactamase Oxa-51 by CLSI broth microdilution method

Escherichia coli [38] = experiment: microbe, parasite or virus in culture; remark: listed apart in the source
Description: Antimicrobial activity against Escherichia coli expressing beta-lactamase SPM-1 by CLSI broth microdilution method

Escherichia coli [39] = experiment: microbe, parasite or virus in culture; remark: listed apart in the source
Description: Antimicrobial activity against Escherichia coli expressing beta-lactamase GES-1 by CLSI broth microdilution method

Escherichia coli [40] = experiment: microbe, parasite or virus in culture; remark: listed apart in the source
Description: Antimicrobial activity against Escherichia coli expressing beta-lactamase Oxa-181 by CLSI broth microdilution method

Escherichia coli [41] = experiment: microbe, parasite or virus in culture; remark: listed apart in the source
Description: Antimicrobial activity against Escherichia coli expressing beta-lactamase DHA by CLSI broth microdilution method

Escherichia coli [42] = experiment: Antimicrobial activity against Escherichia coli expressing beta-lactamase TEM-1 by CLSI broth microdilution method; format: functional
Escherichia coli [43] = experiment: microbe, parasite or virus in culture; remark: listed apart in the source
Description: Antimicrobial activity against Escherichia coli expressing beta-lactamase TEM-47 by CLSI broth microdilution method

Enterobacteriaceae = experiment: Antimicrobial activity against ESBL, KPC and MBL producing Enterobacteriaceae by CLSI broth microdilution method; format: functional
[44] = Chemical stability in pH 7.4 potassium phosphate buffer assessed as half life for compound hydrolysis at 37 degC by UPLC and mass spectrometry; format: physicochemical
Escherichia coli [45] = experiment: microbe, parasite or virus in culture; remark: listed apart in the source
Description: Antimicrobial activity against Escherichia coli expressing beta-lactamase SME-1 by CLSI broth microdilution method

Escherichia coli [46] = experiment: microbe, parasite or virus in culture; remark: listed apart in the source
Description: Antimicrobial activity against Escherichia coli expressing beta-lactamase CTXM-15 by CLSI broth microdilution method

Escherichia coli [47] = experiment: microbe, parasite or virus in culture; remark: listed apart in the source
Description: Antimicrobial activity against wild type Escherichia coli by CLSI broth microdilution method

For `C[C@@H](O)[C@H]1C(=O)N2C(C(=O)O)=C(S[C@@H]3CN[C@H](CNS(N)(=O)=O)C3)[C@H](C)[C@H]12` [DORIPENEM], the inhibition [1] was 0% and the Activity (Mus musculus) was “Non-Toxic”.

Compound `C[C@@H](O)[C@H]1C(=O)N2C(C(=O)O)=C(SCCNC=N)C[C@H]12` [IMIPENEM ANHYDROUS] has an inhibition [1] of 15%, an MIC (Escherichia coli [2]) of 0.25 µg/mL (≈ 0.835 µM) and an MIC (Escherichia coli [3]) of 2 µg/mL (≈ 6.68 µM). For the same compound, the MIC (Escherichia coli [4]) was 2 µg/mL (≈ 6.68 µM), the MIC (Escherichia coli [5]) was 16 µg/mL (≈ 53.4 µM) and the MIC (Escherichia coli [6]) was 0.5 µg/mL (≈ 1.67 µM). The MIC (Escherichia coli [7]) was 0.25 µg/mL (≈ 0.835 µM), the MIC (Escherichia coli [8]) was 1 µg/mL (≈ 3.34 µM) and the MIC (Escherichia coli [9]) was 2 µg/mL (≈ 6.68 µM). It also gave an MIC (Escherichia coli [10]) of 0.25 µg/mL (≈ 0.835 µM), an MIC (Escherichia coli [11]) of 0.25 µg/mL (≈ 0.835 µM) and an MIC (Escherichia coli [12]) of 1 µg/mL (≈ 3.34 µM). The MIC (Escherichia coli [13]) was 0.25 µg/mL (≈ 0.835 µM), the MIC (Escherichia coli [14]) was 2 to 16 µg/mL (≈ 6.68 to 53.4 µM) and the MIC (Escherichia coli [15]) was 1 µg/mL (≈ 3.34 µM). The MIC (Escherichia coli [16]) was 0.25 µg/mL (≈ 0.835 µM), the MIC (Escherichia coli [17]) was 16 µg/mL (≈ 53.4 µM) and the MIC (Escherichia coli [18]) was 1 µg/mL (≈ 3.34 µM). It also gave an MIC (Escherichia coli [19]) of 0.25 µg/mL (≈ 0.835 µM), an MIC (Escherichia coli [20]) of 2 µg/mL (≈ 6.68 µM) and an MIC (Escherichia coli [21]) of 0.25 µg/mL (≈ 0.835 µM). For the same compound, the MIC (Escherichia coli [22]) was 0.25 µg/mL (≈ 0.835 µM), the MIC (Escherichia coli [23]) was 2 µg/mL (≈ 6.68 µM) and the MIC (Escherichia coli [24]) was 2 µg/mL (≈ 6.68 µM). For the same compound, the MIC (Escherichia coli [25]) was 1 µg/mL (≈ 3.34 µM), the MIC (Escherichia coli [26]) was 0.25 µg/mL (≈ 0.835 µM) and the MIC (Escherichia coli [27]) was 0.25 µg/mL (≈ 0.835 µM). For the same compound, the MIC (Escherichia coli [28]) was 0.25 µg/mL (≈ 0.835 µM), the MIC (Escherichia coli [29]) was 0.25 µg/mL (≈ 0.835 µM) and the MIC (Escherichia coli [30]) was 0.25 µg/mL (≈ 0.835 µM). It also gave an MIC (Escherichia coli [31]) of 0.25 µg/mL (≈ 0.835 µM), an MIC (Escherichia coli [32]) of 0.25 µg/mL (≈ 0.835 µM) and an MIC (Escherichia coli [33]) of 1 µg/mL (≈ 3.34 µM). For the same compound, the MIC (Escherichia coli [34]) was 0.25 µg/mL (≈ 0.835 µM), the MIC (Escherichia coli [35]) was 1 µg/mL (≈ 3.34 µM) and the MIC (Escherichia coli [36]) was 0.125 µg/mL (≈ 0.418 µM). For the same compound, the MIC (Escherichia coli [37]) was 0.25 µg/mL (≈ 0.835 µM), the MIC (Escherichia coli [38]) was 1 µg/mL (≈ 3.34 µM) and the MIC (Escherichia coli [39]) was 0.25 µg/mL (≈ 0.835 µM). It also gave an MIC (Escherichia coli [40]) of 1 µg/mL (≈ 3.34 µM).

With `C[C@@H](O)[C@H]1C(=O)N2C(C(=O)O)=C(S[C@@H]3CN[C@H](C(=O)N(C)C)C3)[C@H](C)[C@H]12` [MEROPENEM] the MIC (Escherichia coli [41]) was ≤ 0.06 µg/mL, the MIC (Escherichia coli [2]) was ≤ 0.06 µg/mL and the MIC (Escherichia coli [3]) was 2 µg/mL (≈ 5.22 µM). For the same compound, the MIC (Escherichia coli [42]) was ≤ 0.06 µg/mL, the MIC (Escherichia coli [4]) was 1 µg/mL (≈ 2.61 µM) and the MIC (Escherichia coli [5]) was 16 to 64 µg/mL (≈ 41.7 to 167 µM). The MIC (Escherichia coli [6]) was ≤ 0.06 µg/mL, the MIC (Escherichia coli [7]) was ≤ 0.06 µg/mL and the MIC (Escherichia coli [43]) was ≤ 0.06 µg/mL. For the same compound, the MIC (Escherichia coli [8]) was 1 µg/mL (≈ 2.61 µM), the MIC (Escherichia coli [9]) was 4 µg/mL (≈ 10.4 µM) and the MIC (Escherichia coli [10]) was ≤ 0.06 µg/mL. For the same compound, the MIC90 (Enterobacteriaceae) was 32 µg/mL (≈ 83.4 µM), the MIC (Escherichia coli [11]) was 0.125 µg/mL (≈ 0.326 µM) and the MIC (Escherichia coli [12]) was 0.125 µg/mL (≈ 0.326 µM). The MIC (Escherichia coli [13]) was ≤ 0.06 µg/mL, the MIC (Escherichia coli [14]) was 2 µg/mL (≈ 5.22 µM) and the MIC (Escherichia coli [15]) was 1 µg/mL (≈ 2.61 µM). The MIC (Escherichia coli [16]) was ≤ 0.06 µg/mL, the MIC (Escherichia coli [17]) was 64 µg/mL (≈ 167 µM) and the MIC (Escherichia coli [18]) was 0.125 µg/mL (≈ 0.326 µM). For the same compound, the MIC (Escherichia coli [19]) was ≤ 0.06 µg/mL, the MIC (Escherichia coli [20]) was 2 µg/mL (≈ 5.22 µM) and the MIC (Escherichia coli [21]) was ≤ 0.06 µg/mL. The MIC (Escherichia coli [22]) was ≤ 0.015 µg/mL, the MIC (Escherichia coli [23]) was 8 µg/mL (≈ 20.9 µM) and the MIC (Escherichia coli [24]) was 2 µg/mL (≈ 5.22 µM). The MIC (Escherichia coli [25]) was 0.25 µg/mL (≈ 0.652 µM), the half-life [44] was 78 h and the MIC (Escherichia coli [45]) was 4 µg/mL (≈ 10.4 µM). The MIC (Escherichia coli [26]) was ≤ 0.015 µg/mL, the MIC (Escherichia coli [46]) was ≤ 0.015 µg/mL and the MIC (Escherichia coli [27]) was ≤ 0.06 µg/mL. For the same compound, the MIC (Escherichia coli [28]) was ≤ 0.06 µg/mL, the MIC (Escherichia coli [29]) was ≤ 0.06 µg/mL and the MIC (Escherichia coli [31]) was ≤ 0.06 µg/mL. The MIC (Escherichia coli [47]) was ≤ 0.015 µg/mL, the MIC (Escherichia coli [32]) was ≤ 0.06 µg/mL and the MIC (Escherichia coli [33]) was 1 µg/mL (≈ 2.61 µM). The MIC (Escherichia coli [34]) was ≤ 0.06 µg/mL, the MIC (Escherichia coli [35]) was 1 µg/mL (≈ 2.61 µM) and the MIC (Escherichia coli [36]) was ≤ 0.06 µg/mL. The MIC (Escherichia coli [37]) was ≤ 0.015 µg/mL, the MIC (Escherichia coli [38]) was 8 µg/mL (≈ 20.9 µM) and the MIC (Escherichia coli [39]) was ≤ 0.06 µg/mL. It also gave an MIC (Escherichia coli [40]) of 0.5 µg/mL (≈ 1.3 µM).
